Measured values reported in ChEMBL document CHEMBL1156254, “4-Pregnen-21-ol-3,20-dione-21-(4-bromobenzenesulfonate) (NSC 88915) and related novel steroid derivatives as tyrosyl-DNA phosphodiesterase (Tdp1) inhibitors” (J Med Chem, 2009).
Calls of active or inactive are those of the source. The calls are words filed in the database; no cut-off is given here.

The compounds below were run against Tyrosyl-DNA phosphodiesterase 1 (Homo sapiens) (UniProt Q9NUW8) (assay: Ratio of IC50 of test compound to IC50 of NSC88915 for human Tdp1 assessed as blockade of enzyme-mediated hydrolysis of phosphodiester linkage between tyrosine and 3^-end of N14Y DNA substrate by SDS-PAGE electrophoresis).
Sequence of Tyrosyl-DNA phosphodiesterase 1 (Homo sapiens) (Q9NUW8 whole entry): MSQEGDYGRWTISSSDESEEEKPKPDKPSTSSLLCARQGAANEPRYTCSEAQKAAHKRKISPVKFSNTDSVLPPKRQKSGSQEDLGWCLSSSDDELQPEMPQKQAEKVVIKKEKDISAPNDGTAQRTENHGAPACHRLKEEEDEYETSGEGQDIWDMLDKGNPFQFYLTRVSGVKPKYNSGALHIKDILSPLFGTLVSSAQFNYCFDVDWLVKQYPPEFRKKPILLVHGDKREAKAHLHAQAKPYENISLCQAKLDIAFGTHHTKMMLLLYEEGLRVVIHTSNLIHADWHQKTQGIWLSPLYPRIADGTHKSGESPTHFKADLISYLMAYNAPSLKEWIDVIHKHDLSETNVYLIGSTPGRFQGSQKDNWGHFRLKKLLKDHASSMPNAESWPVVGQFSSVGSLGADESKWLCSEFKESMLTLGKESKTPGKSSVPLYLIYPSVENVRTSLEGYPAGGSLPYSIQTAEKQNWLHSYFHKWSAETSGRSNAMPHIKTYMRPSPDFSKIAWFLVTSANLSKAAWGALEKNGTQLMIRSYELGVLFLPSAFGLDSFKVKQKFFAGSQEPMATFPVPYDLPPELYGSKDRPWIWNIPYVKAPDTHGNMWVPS

| Structure (SMILES) | Ratio IC50 |
| --- | --- |
| C[C@]12CC[C@H]3[C@@H](CCC4=CC(=O)CC[C@@]43C)[C@@H]1CC[C@@H]2C(=O)COS(=O)(=O)c1ccc(F)cc1 | < 3 |
| C[C@]12CC[C@H]3[C@@H](CCC4=CC(=O)CC[C@@]43C)[C@@H]1CC[C@@H]2C(=O)COS(=O)(=O)c1ccc([N+](=O)[O-])cc1 | < 3 |
| C[C@]12CC[C@H]3[C@@H](CCC4=CC(=O)CC[C@@]43C)[C@@H]1CC[C@@H]2C(=O)COS(=O)(=O)c1ccc(Cl)cc1 | < 3 |
| C[C@]12CC[C@H]3[C@@H](CCC4=CC(=O)CC[C@@]43C)[C@@H]1CC[C@@H]2C(=O)COS(=O)(=O)c1ccccc1 | < 3 |
| Cc1ccc(S(=O)(=O)OCC(=O)[C@H]2CC[C@H]3[C@@H]4CCC5=CC(=O)CC[C@]5(C)[C@H]4CC[C@]23C)cc1 | < 3 |

The compounds below were run against DNA repair nuclease/redox regulator APEX1 (Homo sapiens) (UniProt P27695) (assay: Inhibition of human APE1 up to 100 uM).
Sequence of DNA repair nuclease/redox regulator APEX1 (Homo sapiens) (P27695 whole entry): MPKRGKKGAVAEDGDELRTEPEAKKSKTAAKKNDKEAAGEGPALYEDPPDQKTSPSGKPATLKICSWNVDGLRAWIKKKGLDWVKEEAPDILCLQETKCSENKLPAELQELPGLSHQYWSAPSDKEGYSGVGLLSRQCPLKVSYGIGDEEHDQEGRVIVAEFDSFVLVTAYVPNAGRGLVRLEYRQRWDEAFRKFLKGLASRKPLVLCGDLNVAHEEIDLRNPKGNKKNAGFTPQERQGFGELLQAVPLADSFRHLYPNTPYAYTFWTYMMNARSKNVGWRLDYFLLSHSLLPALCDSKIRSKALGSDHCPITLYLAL

| Structure (SMILES) | inhibition |
| --- | --- |
| C[C@]12CC[C@H]3[C@@H](CCC4=CC(=O)CC[C@@]43C)[C@@H]1CC[C@@H]2C(=O)COS(=O)(=O)c1ccc(Br)cc1 | inactive |
